The text below walks through data of ChEMBL document CHEMBL1201862, “PubChem BioAssay data set” (2004).

Calls of active or inactive are those of the source. Bounds are passed on as bounds.

Usually IC50 stands for the concentration needed to halve the response being measured. Broadly, the EC50 is the concentration needed to bring the measured effect to its halfway point. What is called AC50 is the midpoint of the concentration-response curve, whichever way the signal moves.

Assay [1] has as its target Polyadenylate-binding protein 1 (Homo sapiens, UniProt P11940). The assay can be described thus: PABP inhibition in translation initiation, SAR follow-up (AID 435018). Format: functional.
Assay [2] addresses Eukaryotic translation initiation factor 4H (Homo sapiens, UniProt Q15056). The assay can be described thus: inhibitors of translation initiation factor eIF4H – SAR follow-up (AID 435011). Format: functional.
The target in assay [3] is DNA dC->dU-editing enzyme APOBEC-3A (Homo sapiens, UniProt P31941). The assay can be described thus: A3A deaminase inhibition for selectivity – biochemical, dose response (AID 504722). Format: functional.
The target of assay [4] is DNA dC->dU-editing enzyme APOBEC-3G (Homo sapiens, UniProt Q9HC16). The assay can be described thus: Dose Response confirmation of small molecule APOBEC3G DNA Deaminase Inhibitors via a fluorescence-based single-stranded DNA deaminase assay. [Related pubchem assays (depositor defined):AID493012, AID493028]. Format: functional.
Assay [5] has as its target Beta-galactosidase (Escherichia coli, UniProt Q8VNN2). The assay can be described thus: detection-enzyme interference by beta-gal modulators – biochemical, E. coli enzyme, set 3, artefact control for CCR6 antagonist project, dose response (AID 504712). Format: functional.
The nature of assay [6]: Luminescence Cell-Based Dose Confirmation HTS to Identify Inhibitors of Platelet Dense Granule Release. [Related pubchem assays: 1663 (Primary HTS), 1678 (Summary of Project)]. Format: functional.
Assay [7] is described as follows: non-specific 3'UTR reporter inhibition in Clone20-Shn3RL – cell-based, Renilla luciferase, cherry-picked, counter-screen for Shn3 inhibitor project, dose response (AID 624133). Format: functional.
Assay [8] concerns the target Beta Lactamase (Pseudomonas aeruginosa, UniProt Q932Y6). The assay is described as follows: BLA reporter interference, concentration series – BLA reporter cells, FRET fluorescence, artefact control for NOD2-RIPK2 interaction inhibitor project, dose response (AID 651552). Format: functional, cell-based.
The target in assay [9] is Luciferin 4-monooxygenase (Photinus pyralis, UniProt P08659). The assay is described as follows: inhibition of purified Photinus pyralis luciferase – biochemical, luminescence, dose response (AID 1891).
The target of assay [10] is NACHT, LRR and PYD domains-containing protein 1 (Homo sapiens, UniProt Q9C000). The assay is described as follows: NALP1 inhibitors in yeast, dose response, luminescent (AID 488860). Format: functional.
Assay [11] in a line: reduction of Shn3 3'UTR-driven luciferase in osteoblasts – cell-based, Clone20 osteoblasts, firefly luciferase, cherry-picked, dose response (AID 624132).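 Further: firefly luciferase luminescence from reporter carrying the Shn3 3'UTR in osteoblasts.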 Format: functional.
Assay [12] concerns Saccharomyces cerevisiae. The assay is described as follows: S. cerevisiae Caspase-1/ASC signal blockers IC50, NALP1 inhibitor project selectivity test (AID 488863). Format: functional, organism-based.
Assay [13] in a line: Fluorescence-based cell-based high throughput dose response assay for inhibitors of the interaction of nucleotide-binding oligomerization domain containing 2 (NOD2) and the receptor-interacting serine-threonine kinase 2 (RIPK2). Format: functional. The note with it: Homo sapiens.
Assay [14] in a line: loss of viability in HepG2 cells – cell-based, CellTiter-Glo, cherry-picked, cytotoxicity control for Shn3 inhibitor project, dose response (AID 624134). Format: functional. For orientation: ATP-based viability assays read luminescence as a measure of living cells.

Chain of DNA dC->dU-editing enzyme APOBEC-3G (Q9HC16 whole entry): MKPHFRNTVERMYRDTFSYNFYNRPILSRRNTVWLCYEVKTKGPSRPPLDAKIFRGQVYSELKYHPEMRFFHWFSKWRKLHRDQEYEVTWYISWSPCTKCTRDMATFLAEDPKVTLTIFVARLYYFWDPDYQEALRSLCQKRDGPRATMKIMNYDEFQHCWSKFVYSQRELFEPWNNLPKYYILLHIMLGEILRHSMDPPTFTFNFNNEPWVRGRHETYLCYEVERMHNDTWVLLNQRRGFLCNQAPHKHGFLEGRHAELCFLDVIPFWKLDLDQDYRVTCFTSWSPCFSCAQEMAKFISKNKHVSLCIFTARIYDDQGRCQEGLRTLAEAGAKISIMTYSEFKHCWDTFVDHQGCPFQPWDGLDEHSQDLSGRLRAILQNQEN
Chain of Beta Lactamase (Q932Y6 whole entry): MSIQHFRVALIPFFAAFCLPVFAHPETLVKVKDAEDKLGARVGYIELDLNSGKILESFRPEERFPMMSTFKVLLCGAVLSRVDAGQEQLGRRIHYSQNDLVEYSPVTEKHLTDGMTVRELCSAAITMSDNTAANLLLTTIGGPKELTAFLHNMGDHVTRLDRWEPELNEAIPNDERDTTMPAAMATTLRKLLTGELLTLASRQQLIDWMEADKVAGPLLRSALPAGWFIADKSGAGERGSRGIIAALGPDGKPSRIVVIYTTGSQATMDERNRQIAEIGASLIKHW
Chain of DNA dC->dU-editing enzyme APOBEC-3A (P31941 whole entry): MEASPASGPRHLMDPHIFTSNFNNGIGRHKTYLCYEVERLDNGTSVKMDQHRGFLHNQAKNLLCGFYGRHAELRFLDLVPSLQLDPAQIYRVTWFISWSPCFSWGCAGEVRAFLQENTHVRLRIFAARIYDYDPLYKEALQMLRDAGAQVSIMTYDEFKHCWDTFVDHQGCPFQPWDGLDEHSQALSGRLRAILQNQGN
Chain of NACHT, LRR and PYD domains-containing protein 1 (Q9C000 1-1212 limits assumed): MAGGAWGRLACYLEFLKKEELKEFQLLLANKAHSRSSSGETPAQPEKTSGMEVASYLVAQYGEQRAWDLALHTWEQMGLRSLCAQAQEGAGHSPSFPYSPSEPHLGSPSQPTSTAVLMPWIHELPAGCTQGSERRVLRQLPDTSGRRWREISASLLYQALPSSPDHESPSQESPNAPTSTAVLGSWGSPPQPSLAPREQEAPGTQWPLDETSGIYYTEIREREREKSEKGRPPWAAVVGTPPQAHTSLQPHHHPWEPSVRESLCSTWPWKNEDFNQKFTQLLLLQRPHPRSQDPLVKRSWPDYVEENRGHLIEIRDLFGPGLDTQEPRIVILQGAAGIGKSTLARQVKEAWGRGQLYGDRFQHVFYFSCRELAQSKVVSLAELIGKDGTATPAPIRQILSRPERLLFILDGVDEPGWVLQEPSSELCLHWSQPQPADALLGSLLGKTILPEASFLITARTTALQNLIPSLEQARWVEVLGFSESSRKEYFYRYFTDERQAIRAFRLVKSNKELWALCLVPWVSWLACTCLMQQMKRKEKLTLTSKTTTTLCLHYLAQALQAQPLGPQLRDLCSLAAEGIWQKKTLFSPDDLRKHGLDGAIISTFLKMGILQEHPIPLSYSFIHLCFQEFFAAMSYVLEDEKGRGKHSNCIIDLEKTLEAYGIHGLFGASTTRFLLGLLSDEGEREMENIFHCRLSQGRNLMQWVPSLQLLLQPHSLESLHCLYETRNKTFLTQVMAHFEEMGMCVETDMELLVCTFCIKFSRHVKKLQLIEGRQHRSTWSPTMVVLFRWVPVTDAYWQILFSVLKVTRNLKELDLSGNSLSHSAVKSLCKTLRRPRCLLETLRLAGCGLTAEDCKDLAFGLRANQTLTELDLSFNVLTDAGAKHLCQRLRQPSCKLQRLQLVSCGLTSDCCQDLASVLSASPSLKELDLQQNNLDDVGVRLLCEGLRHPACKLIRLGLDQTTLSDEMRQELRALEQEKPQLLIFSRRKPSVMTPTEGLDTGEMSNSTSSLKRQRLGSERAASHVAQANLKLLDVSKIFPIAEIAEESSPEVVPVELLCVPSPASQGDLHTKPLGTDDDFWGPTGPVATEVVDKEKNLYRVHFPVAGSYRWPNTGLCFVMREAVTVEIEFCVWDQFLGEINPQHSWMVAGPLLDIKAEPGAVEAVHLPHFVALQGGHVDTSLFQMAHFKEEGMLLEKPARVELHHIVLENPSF
Chain of NACHT, LRR and PYD domains-containing protein 1 (Q9C000 1213-1473 limits assumed): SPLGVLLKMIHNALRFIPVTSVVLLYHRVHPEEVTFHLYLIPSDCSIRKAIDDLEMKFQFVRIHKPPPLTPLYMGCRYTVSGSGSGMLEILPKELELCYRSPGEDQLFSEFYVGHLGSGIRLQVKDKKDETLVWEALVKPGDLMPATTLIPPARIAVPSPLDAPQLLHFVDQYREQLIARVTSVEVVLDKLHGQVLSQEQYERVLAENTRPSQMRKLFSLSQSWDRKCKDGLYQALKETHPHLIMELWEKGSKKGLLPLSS
Chain of Luciferin 4-monooxygenase (P08659 whole entry, the tested form may be a part): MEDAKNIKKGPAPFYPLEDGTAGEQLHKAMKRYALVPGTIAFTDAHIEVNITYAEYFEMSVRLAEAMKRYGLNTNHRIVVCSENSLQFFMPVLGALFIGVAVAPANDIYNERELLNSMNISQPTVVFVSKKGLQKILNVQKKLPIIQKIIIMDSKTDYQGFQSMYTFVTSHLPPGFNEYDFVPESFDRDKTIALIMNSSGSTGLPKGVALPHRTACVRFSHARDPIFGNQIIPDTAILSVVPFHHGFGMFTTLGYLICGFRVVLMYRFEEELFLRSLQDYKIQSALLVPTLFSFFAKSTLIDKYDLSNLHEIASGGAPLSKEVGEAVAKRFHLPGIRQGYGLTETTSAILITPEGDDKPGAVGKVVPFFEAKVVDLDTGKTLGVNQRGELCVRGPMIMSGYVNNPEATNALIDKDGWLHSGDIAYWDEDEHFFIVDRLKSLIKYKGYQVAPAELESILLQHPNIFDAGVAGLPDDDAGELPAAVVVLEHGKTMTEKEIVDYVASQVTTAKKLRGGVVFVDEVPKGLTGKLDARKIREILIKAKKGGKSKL
Chain of Beta-galactosidase (Q8VNN2 whole entry): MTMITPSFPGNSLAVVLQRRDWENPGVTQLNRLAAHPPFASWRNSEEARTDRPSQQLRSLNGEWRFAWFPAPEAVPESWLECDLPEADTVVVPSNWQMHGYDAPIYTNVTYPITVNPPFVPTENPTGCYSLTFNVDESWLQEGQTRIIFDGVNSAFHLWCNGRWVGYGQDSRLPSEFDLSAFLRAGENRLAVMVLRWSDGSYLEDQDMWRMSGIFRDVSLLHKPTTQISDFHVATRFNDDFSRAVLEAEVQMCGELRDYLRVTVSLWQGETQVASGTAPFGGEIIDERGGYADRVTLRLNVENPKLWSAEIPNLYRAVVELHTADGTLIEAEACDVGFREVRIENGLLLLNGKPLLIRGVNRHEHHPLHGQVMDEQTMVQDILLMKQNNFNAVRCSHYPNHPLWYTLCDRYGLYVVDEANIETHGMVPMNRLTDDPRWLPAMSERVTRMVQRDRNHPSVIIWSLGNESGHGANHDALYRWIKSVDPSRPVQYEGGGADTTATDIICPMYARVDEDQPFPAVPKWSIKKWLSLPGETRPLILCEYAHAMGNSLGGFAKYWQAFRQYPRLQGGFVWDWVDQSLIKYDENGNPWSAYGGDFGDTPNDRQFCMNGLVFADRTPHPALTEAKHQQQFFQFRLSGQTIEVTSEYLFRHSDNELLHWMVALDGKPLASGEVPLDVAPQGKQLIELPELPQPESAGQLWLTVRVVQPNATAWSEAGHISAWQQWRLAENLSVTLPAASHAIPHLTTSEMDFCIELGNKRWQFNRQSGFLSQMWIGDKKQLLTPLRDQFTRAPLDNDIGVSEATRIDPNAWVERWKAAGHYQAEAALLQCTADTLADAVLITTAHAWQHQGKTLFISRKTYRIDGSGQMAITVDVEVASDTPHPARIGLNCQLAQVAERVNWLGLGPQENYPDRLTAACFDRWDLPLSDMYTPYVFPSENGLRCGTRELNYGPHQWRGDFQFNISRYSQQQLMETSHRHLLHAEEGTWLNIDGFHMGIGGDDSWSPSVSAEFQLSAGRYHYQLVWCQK
Chain of Polyadenylate-binding protein 1 (P11940 whole entry): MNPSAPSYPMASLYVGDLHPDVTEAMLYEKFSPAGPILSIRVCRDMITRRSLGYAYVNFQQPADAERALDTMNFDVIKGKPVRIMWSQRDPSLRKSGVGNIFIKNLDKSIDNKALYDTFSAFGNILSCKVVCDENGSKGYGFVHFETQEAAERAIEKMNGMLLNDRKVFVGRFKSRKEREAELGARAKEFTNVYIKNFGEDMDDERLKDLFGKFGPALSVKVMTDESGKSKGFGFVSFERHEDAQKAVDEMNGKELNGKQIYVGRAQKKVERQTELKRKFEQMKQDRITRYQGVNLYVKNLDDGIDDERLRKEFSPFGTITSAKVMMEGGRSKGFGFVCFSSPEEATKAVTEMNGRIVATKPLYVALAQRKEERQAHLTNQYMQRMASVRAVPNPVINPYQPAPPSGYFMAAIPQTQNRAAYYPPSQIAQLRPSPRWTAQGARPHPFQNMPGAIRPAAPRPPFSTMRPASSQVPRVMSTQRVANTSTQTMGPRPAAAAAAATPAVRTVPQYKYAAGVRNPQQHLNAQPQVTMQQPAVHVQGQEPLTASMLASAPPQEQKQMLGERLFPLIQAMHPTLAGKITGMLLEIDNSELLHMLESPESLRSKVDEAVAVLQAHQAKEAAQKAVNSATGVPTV

Consider `COc1cc(/C=N\NC(=O)c2ccccc2O)ccc1OCC(=O)Nc1ccc(C)c(C)c1`, for which the IC50 in [1] was > 100 µM (inactive); in assay [2], 34.6 µM (active).

As to `O=[N+]([O-])c1ccccc1/C=N/n1c(S)nnc1-c1ccccc1`, the figures for the IC50 in assay [3] and in assay [4] were > 100 µM (inactive) and 4.25 µM (active), respectively.

For `O=C1CC(Sc2nnnn2-c2ccccc2)C(=O)N1c1cccc(Cl)c1` (centres undefined), the IC50 in assay [5] is > 66.6 µM (inactive); in assay [8], 12.6 µM (inactive); in assay [10] it was 5.83 µM (active); in assay [12] it was 5.13 µM (active); in [13] it was 2.81 µM (active). For the same compound, the EC50 in [6] is 19.1 µM (active); in assay [9] it was > 112 µM (not active). The figures for the concentration at half-maximal activity (AC50) in [7], in assay [11] and in assay [14] were 8.88 µM (active), 8.53 µM (active) and 24.5 µM (active), respectively.
